{
  "source": "patent US20070099821A1",
  "about": "“METHOD OF ACTIVATING INSULIN RECEPTOR SUBSTRATE-2 TO STIMULATE INSULIN PRODUCTION” (Sanofi-Aventis Deutschland GmbH, priority 2001, published 2007)",
  "key": {"INS-1 cells": {"tested_on": "INS-1 cells", "assay": "Cytokine-induced apoptosis in pancreatic β-cells (INS-1, nucleosomal release ELISA)", "format": "cell-based, rat", "conditions": "IL-1β + IFN-γ, 24 h, IGF-I 10 nM, mean ± SEM of 4-5 experiments", "method": "The rat insulinoma cell line INS-1 was grown in RPMI 1640 medium supplemented with 10% heat-inactivated fetal calf serum (FCS), 500 U/ml penicillin, 50 μg/ml streptomycin, 2 mmol/l glutamine and 50 μmol/l 2-mercaptoethanol and passaged by trypsinization. Functional integrity of the cells was confirmed by measuring glucose-stimulated insulin secretion. INS-1 cells were routinely seeded at 3.5×10^5 cells/well of a 12-well plate for cell death detection experiments and used on day 4 at 60-70% confluence.\nSubconfluent INS-1 cells were incubated for 2 h in RPMI 1640 medium (Eggenstein, Germany) without FCS supplemented with 0.5% BSA. After this serum free period the medium was removed and replaced with fresh RPMI 1640 containing 5% FCS and 0.5% BSA. […] The induced apoptosis was measured by the specific determination of mono- and oligonucleosomes in the cytoplasmatic fraction of cell lysates using a cell death detection ELISA kit (Roche). The assay is based on a quantitative sandwich-enzyme-immunoassay-principle using mouse monoclonal anti-histone and anti-DNA peroxidase antibodies. The relative degree of apoptotic cell death was photometrically determined by measuring the peroxidase activity of the immunocomplexes at 405 nm. […]"}, "K6 myoblasts": {"tested_on": "K6 myoblasts", "assay": "DNA synthesis (BrdU incorporation) in K6 myoblasts", "format": "cell-based, rat", "conditions": "serum-starved K6 myoblasts, 16 h; FCS at 10%", "method": "Effects of insulin, insulin analogs and IGF-I on the incorporation of 5-bromo-2′-deoxyuridine (BrdU) into DNA in K6 myoblasts. Myoblasts were serum-starved for 30 h in DMEM and subsequently incubated with BrdU in the absence (basal) or presence of the indicated concentrations of peptide hormones or fetal calf serum (FCS) for 16 h. Cells were fixed, denatured and the incorporation of BrdU was determined using an anti-BrdU antiserum and ECL detection. Data are mean values±SEM of four separate experiments.\nFor monitoring DNA synthesis, K6 myoblasts (1×10^4 cells/well) were seeded in 24-well microtiter tissue culture plates and were cultured for 24 h in DMEM containing 10% FCS, followed by a 30 h culture period under serum-free conditions. Cells were then stimulated with the different peptide hormones or 10% FCS for 16 h with the simultaneous addition of 5-bromo-2′-deoxyundine (BrdU). After removing the labeling mediums the cells were fixed and the DNA was denatured by addition of FixDenat (Boehringer Mannheim, Germany). Cells were then incubated with a peroxidase-conjugated anti-BrdU antiserum, and after addition of substrate the light emission was quantified on a Lumilmager work station."}},
  "data": [
    {"substance": "IGF-I: insulin-like growth factor I, peptide hormone used as comparator", "values": [
      {"measurement": "Inhibition of cytokine-induced apoptosis", "setting": "INS-1 cells", "value": "42 ± 2", "unit": "%"},
      {"measurement": "Increase in BrdU-incorporation / DNA synthesis, fold", "setting": "K6 myoblasts", "value": 4, "unit": "fold"}
    ]}
  ]
}
